Read-outs that look alike come from different tables or passages of the source.
Assays:
Hepatitis B virus (HBV) = test: Secretion of enveloped HBV from Hep G2.2.15 cells, antigen capture/PCR assay; assay type: cell-based; settings: Hep G2.2.15 cells
Source text: Pairs of wells were used for each concentration point.
^2IC 50: The concentration of compound that prevented the secretion of 50% of the amount of HBV detected in the medium from wells containing untreated cultures.

[1] = biological target: T1, ceramide glucosyl transferase (CerGlcT) (Homo sapiens, UniProt Q16739); test: Inhibition of ceramide glucosyl transferase / glycolipid synthesis; assay type: biochemical; settings: for IC50: N-alkyl DNJ derivatives; for Inhibitor of glycolipid synthesis: Yes/No
T1 sequence (Q16739 1-394): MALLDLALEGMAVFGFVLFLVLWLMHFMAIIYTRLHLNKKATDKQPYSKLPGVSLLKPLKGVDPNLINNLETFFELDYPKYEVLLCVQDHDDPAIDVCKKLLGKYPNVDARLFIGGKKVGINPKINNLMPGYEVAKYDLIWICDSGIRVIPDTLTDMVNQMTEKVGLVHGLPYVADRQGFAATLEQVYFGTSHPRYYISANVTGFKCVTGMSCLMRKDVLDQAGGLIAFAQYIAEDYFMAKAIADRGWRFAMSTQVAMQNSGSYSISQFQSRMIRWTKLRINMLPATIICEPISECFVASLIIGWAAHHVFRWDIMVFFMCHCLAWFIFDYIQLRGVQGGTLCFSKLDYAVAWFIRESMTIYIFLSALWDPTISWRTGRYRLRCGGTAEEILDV

MDBK cells = test: Toxicity / cell cytotoxicity in MDBK cells; assay type: cell-based; settings: for % Viability at 10 μM: N-alkyl DNJ at 10 μM; for % Viability at 100 μM: N-alkyl DNJ at 100 μM
α-glucosidase = test: Inhibition of α-glucosidase; assay type: biochemical; settings: for IC50: N-alkyl DNJ derivatives; for Inhibitor of α glucosidase: Yes/No
Source text: The inhibitory activity (IC50) and the cell cytotoxicity (IC50) of various compounds, as well as their effect on α-glucosidase and ceramide glucosyl transferase, are shown in Table 2.

BVDV = BVDV plaque reduction and yield assays in MDBK cells; assay type: cell-based, bovine viral diarrhea virus; settings: for Anti-viral effect on BVDV in MDBK cells: Yes/No
[2] = Toxicity / cell cytotoxicity in MDBK cells; assay type: cell-based; settings: bovine
HBV polymerase = biological target: T2, HBV polymerase (Hepatitis B virus genotype D subtype ayw, UniProt P03156); test: Endogenous polymerase assay on purified HBV virions; assay type: biochemical
T2 construct: HBV virions were purified from the culture medium of untreated cells by ultracentrifugation and the polymerase activity (in the presence of the indicated compounds) tested; expressed in transfected cells; host or cells: Hep G2.2.15 (HepG2 stably transfected with a dimer of the HBV genome); virions pelleted from the culture medium
T2 sequence (P03156 whole entry): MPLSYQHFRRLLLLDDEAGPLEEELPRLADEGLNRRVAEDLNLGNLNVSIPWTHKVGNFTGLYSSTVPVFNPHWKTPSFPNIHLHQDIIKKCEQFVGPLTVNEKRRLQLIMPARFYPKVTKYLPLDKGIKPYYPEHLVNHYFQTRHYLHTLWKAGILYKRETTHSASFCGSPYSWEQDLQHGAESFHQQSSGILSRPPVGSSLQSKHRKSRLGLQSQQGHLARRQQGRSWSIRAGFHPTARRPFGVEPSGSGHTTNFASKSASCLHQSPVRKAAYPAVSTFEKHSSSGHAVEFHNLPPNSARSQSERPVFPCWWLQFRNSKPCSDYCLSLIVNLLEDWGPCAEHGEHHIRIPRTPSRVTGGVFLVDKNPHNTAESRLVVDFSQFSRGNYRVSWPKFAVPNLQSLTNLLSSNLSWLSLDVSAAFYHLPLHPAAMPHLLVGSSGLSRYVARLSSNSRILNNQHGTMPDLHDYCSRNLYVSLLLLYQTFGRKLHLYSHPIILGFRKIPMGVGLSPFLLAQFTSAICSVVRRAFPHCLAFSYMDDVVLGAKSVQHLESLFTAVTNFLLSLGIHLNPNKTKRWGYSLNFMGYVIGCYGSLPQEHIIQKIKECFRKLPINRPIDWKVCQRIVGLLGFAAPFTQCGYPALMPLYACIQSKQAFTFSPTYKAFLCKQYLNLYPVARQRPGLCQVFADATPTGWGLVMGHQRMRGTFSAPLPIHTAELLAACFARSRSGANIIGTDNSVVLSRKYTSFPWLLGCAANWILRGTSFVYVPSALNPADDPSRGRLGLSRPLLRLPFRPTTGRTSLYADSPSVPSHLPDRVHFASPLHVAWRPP
Experimental: Endogenous polymerase assay: Media containing HBV from Hep G2.2.15 cells was pelleted through 20% sucrose (SW 28 Rotor, 24,000 RPM) for 16 hours and the pellet re-suspended in 50 μl of a mixture containing 50 mM Tris (pH 7.5), 75 mM NH4Cl, 1 mM EDTA, 25 mM MgCl2, 0.1% β-mercaptoethanol, 0.5% NP-40, 0.4 mM each of dATP, dGTP, dTTP and 10 μl of P^32 labeled dCTP. […] DNA was purified by a phenol/chloroform extraction and ethanol precipitation.
HBV DNA replication involves the conversion of a pregenomic RNA (pgRNA) into DNA by the action of the HBV polymerase. Current nucleoside analogue drugs (e.g., 3TC) for treating HBV target this reaction, preventing the formation and secretion of HBV viral DNA. Because the iminosugar N-nonyl-DGJ prevents the formation of HBV rc DNA, it was important to determine whether N-nonyl-DGJ was acting by inhibiting the elongation step of the polymerase. HBV virions from normal and drug treated Hep G2.2.15 cells were purified and the endogenous polymerase activity was measured. HBV virions were purified from the culture medium of untreated cells by ultracentrifugation and the polymerase activity (in the presence of the indicated compounds) tested by the method of Ganem et al. (1998). Briefly, partially purified viral particles were incubated overnight with the indicated concentrations of compound and 10 μCi of ^32P-dCTP. Viral DNA was purified by phenol extraction and ethanol precipitation and resolved on a 1.2% agarose gel. The gel was dried and viral DNA bands detected using a Phospholmager.

HBV [3] = test: Secreted HBV DNA by Southern blot hybridization; assay type: cell-based, hepatitis B virus; settings: HepG2.2.15 cells, seven days
Experimental: Secreted DNA analysis: Secreted DNA analysis was performed by the method of Wei et al. (J. Virol. 70:6455-6458, 1996). […] Media containing drug was changed every two days and on the 7th day the media taken and the virus concentrated by pelleting through 20% sucrose for 16 hours (SW 41 rotor, 36,000 RPM). Virus was resuspended in 400 μL of 10 mM TRIS (pH 7.9), 10 mM EDTA (pH 8.0), and 10 mM MgCl2. Samples were split into two 200 μL aliquots and labeled as +Dnase and −Dnase. To both tubes, 15 μl of proteinase K was added to a final concentration of 750 μg/ml for one hour at 37° C. After one hour, 10 pl Dnase was added to the tube labeled +Dnase (final concentration is 50 units/ml) and incubated at 37° C. for one hour. SDS was added to a final concentration of 1% and additional proteinase K added to a final concentration of 500 μg/ml and the reaction allowed to proceed at 37° C. for 3-4 hours. DNA was than purified by phenol/chloroform extraction. DNA was separated on 1% agarose gel and probed with ^32P labeled probes as described (Mehta et al., Proc. Natl. Acad. Sci. USA 94:1822-1827, 1997).
HepG2.2.15 cells were grown for seven days in the absence or presence of NB-DNJ (1000 μg/ml), NN-DNJ (20 μg/ml) or NN-DGJ (20 μg/ml), respectively. After seven days, virus was isolated from these cell cultures, concentrated, and purified. Secreted HBV DNA was detected by Southern blot hybridization. HBV viral DNA from untreated cells was readily detected. The secretion of HBV DNA from treated HepG2.2.15 was also detected.

HBV [4] = test: Intracellular HBV DNA in HepG2.2.15 cells by Southern blot; assay type: cell-based, hepatitis B virus; settings: seven days, 3TC 1 μg/ml, NB-DNJ 1000 μg/ml, NN-DNJ and NN-DGJ 2 or 20 μg/ml
Experimental: Intracellular DNA analysis: Hep G2.2.15 cells were either left untreated or treated with the compounds listed above for seven days and the total DNA extracted as described (Mehta et al., ibid). DNA (20 μg) was digested with HindIII, resolved through a 1.2% agarose gel and transferred to nylon membranes. Membranes were then hybridized with a ^32P labeled probe containing the total HBV genome and developed as described (Lu et al., Proc. Natl. Acad. Sci. USA 94:2380-2385, 1997). The relaxed circular (rc), linear (lin), and closed circular (CCC) DNA were confirmed by enzymatic digestion.
An infected cell contains several forms of HBV DNA which represent different stages in the HBV life cycle. For example, covalently closed circular DNA (CCC DNA) is the nuclear form of the DNA and is thought to be the viral template (Heermann & Gerlich, 1992). In contrast, the relaxed circular DNA (re DNA) and linear forms (lin) are associated with the viral particle and their presence is an indicator of encapsidation of the viral pre-genomic RNA and the subsequent reverse transcription into progeny DNA (Ganem, Curr. Top. Microbiol. Immunol. 168:61-83, 1991). […] The amount of virus associated with the cells was detected seven days later by Southern blot analysis. The locations of the HBV relaxed circular DNA (rcDNA), covalently close circular (CCC) DNA, and single stranded (SS) DNA was identified by relative mobility.

[5] = MDBK cells, read-out: Anti-viral effect on BVDV in MDBK cells IC50
[6] = Bovine viral diarrhea virus isolates and strains, MDBK, read-out: Anti-viral effect on BVDV in MDBK cells IC50

| SMILES | IC50 [1] [µM] | % Viability at 10 μM (MDBK cells) [%] | % Viability at 100 μM (MDBK cells) [%] | Inhibitor of α glucosidase (α-glucosidase) | Anti-viral effect on BVDV in MDBK cells (BVDV) | further results |
| --- | --- | --- | --- | --- | --- | --- |
| Nc1ccn([C@@H]2CS[C@H](CO)O2)c(=O)n1 [3TC, reference compound] |  |  |  |  |  | IC50 (Hepatitis B virus (HBV); Hepatitis B virus, HepG2.2.15, 216 h, nine days of incubation, read-out: IC 50, secretion of HBV): 5 µM |
| CCCCCCN1C[C@H](O)[C@@H](O)[C@H](O)[C@H]1CO [C6] | 23.8 | 73 | 71 |  |  |  |
| CCCCCCCCN1C[C@H](O)[C@@H](O)[C@H](O)[C@H]1CO [C8] | 16.8 | 70 | 71 |  |  |  |
| CCCCCCCCCCN1C[C@H](O)[C@@H](O)[C@H](O)[C@H]1CO [C10] | 3.1 | 73 | 43 |  |  | IC50 (α-glucosidase): 0.48 µM |
| CCCCCCCCCCCCN1C[C@H](O)[C@@H](O)[C@H](O)[C@H]1CO [C12] | 5.2 | 86 | 1 |  |  |  |
| OC[C@H]1NC[C@H](O)[C@@H](O)[C@@H]1O [DNJ, deoxynorjirimycin, reference compound] |  |  |  | Yes | Yes | IC50 (BVDV; [5]): 20 µM |
| CCOCCCCCCN1C[C@H](O)[C@@H](O)[C@@H](O)[C@H]1C [N-7-oxa-nonyl MeDGJ, N-(7-oxa-nonyl)-1,5,6-trideoxy-1,5-imino-D-galactitol] |  |  |  | No | Yes | Inhibitor of glycolipid synthesis [1]: No; CC50 [2]: 2100 µM; Selectivity index (CC50/IC50) (BVDV; BVDV in MDBK cells): 1400; IC50 (BVDV; [6]): 1.5 µM |
| CCCCN1C[C@H](O)[C@@H](O)[C@@H](O)[C@H]1CO [N-butyl DGJ, reference compound] |  |  |  | No | No |  |
| CCCCN1C[C@H](O)[C@@H](O)[C@H](O)[C@H]1CO [N-butyl DNJ, N-butyl deoxynojiricmycin, reference compound] |  | 74 | 77 | Yes | Yes | IC50 (α-glucosidase): 0.57 µM; Effect on HBV polymerase activity (HBV polymerase; 4.52 mM): no effect on polymerase activity; Decrease of secreted virus DNA (HBV [3]; 1000 μg/ml): about 3 fold; Effect on intracellular HBV DNA (HBV [4]): dramatic increase in the replicative forms of HBV DNA; CC50 (MDBK cells): > 10000 µM; IC50 (BVDV; [5]): 60 to 120 µM |
| CCCCCCCCCN1C[C@H](O)[C@@H](O)[C@H](O)[C@H]1CO [N-nonyl DNJ, N-nonyl-deoxynojirimycin] |  | 56 | 41 | Yes | Yes | Effect on HBV polymerase activity (HBV polymerase; 69 μM): no effect on polymerase activity; Decrease of secreted virus DNA (HBV [3]; 20 μg/ml): ~1.5 fold; Effect on intracellular HBV DNA (HBV [4]): did not cause a large increase in intracellular HBV DNA but rather a reduction; TOX 50 (MTT activity reduced to 50%) (Hep G2.2.15 cells): >100 µM; IC50 (Hepatitis B virus (HBV); antigen capture method, read-out: IC50, HBV secretion): ~1 µM; IC50 (Hepatitis B virus (HBV); nine days of incubation, read-out: IC 50, secretion of HBV): 0.4 to 4 µM; CC50 (MDBK cells): 250 µM; IC50 (BVDV; [5]): 2 to 3 µM |
| CCCCCCCCCN1C[C@H](O)[C@@H](O)[C@@H](O)[C@H]1C [N-nonyl MeDGJ, N-nonyl-1,5,6-trideoxy-1,5-imino-D-galactitol] |  |  |  | No | Yes | Inhibitor of glycolipid synthesis [1]: No; melting point: 49 to 51 °C; IC50 (BVDV; Bovine viral diarrhea virus isolates and strains, MDBK, read-out: IC50, BVDV plaques): < 2.5 µM; IC50 (BVDV; [6]): 2 to 3 µM |

Reference: patent publication US7816560B1, “Long chain n-alkyl compounds and oxa-derivatives thereof” (Thomas Jefferson University, priority 1999, dated 2010)
